According to patent US8754132B2 (The Board of Trustees of the University of Illinois, priority 2010, dated 2014):
Where “and” joins values, the source holds several entries; their conditions need not be identical. Equal entries are not always repeated. Structures can show the parent of a compound that is named as a salt. Where two headings read alike, the source gives them in different places.

Legend:
5-HT(2B) receptor [1] = target: T1, 5-HT(2B) receptor (Homo sapiens, UniProt P41595); assay: Modulation of 5-HT(2) family receptors, Table 1, 2B Receptor; format: cell-based; settings: for 2B Receptor ED50: NA = No activity
5-HT(2C) receptor = target: T2, 5-HT(2C) receptor (Homo sapiens, UniProt P28335); assay: Modulation of 5-HT(2) family receptors, Table 1, 2C Receptor; format: cell-based
T2 sequence (P28335 33-458): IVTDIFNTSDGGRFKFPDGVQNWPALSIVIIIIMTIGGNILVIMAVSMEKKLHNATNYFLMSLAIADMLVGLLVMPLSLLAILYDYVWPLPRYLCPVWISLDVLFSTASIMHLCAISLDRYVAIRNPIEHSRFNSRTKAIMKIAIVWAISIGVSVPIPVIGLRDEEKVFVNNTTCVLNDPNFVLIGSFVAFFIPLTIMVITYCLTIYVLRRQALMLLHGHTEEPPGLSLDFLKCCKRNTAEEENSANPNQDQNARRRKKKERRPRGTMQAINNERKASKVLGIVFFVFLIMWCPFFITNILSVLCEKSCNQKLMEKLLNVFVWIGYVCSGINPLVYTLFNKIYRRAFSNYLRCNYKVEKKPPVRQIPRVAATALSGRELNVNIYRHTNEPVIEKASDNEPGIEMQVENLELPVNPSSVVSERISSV

5-HT(2A) receptor [2] = target: T3, 5-HT(2A) receptor (Homo sapiens, UniProt P28223); assay: Modulation of 5-HT(2) family receptors, Table 1, 2A Receptor; format: cell-based; settings: for 2A Receptor ED50: NA = No activity
[3] = target: T4, human 5-HT(2C) (INI) receptor (Homo sapiens, UniProt P28335); assay: Calcium flux assay, stably transfected HEK-293 cells, 5-HT2C; format: cell-based; settings: for 5-HT2C % Max ± SEM: percent of maximal activation by 5-HT; for Emax 2C/2A / Emax 2C/2B: Emax ratio
T4 construct: expressed in transfected cells
T4 sequence (P28335 33-458): T2 sequence (P28335 33-458)

5-HT(2A) receptor [4] = target: T3, 5-HT(2A) receptor; assay: cell-based; format: cell-based; design: expressed in transfected cells; settings: for 5-HT2A % Max ± SEM: percent of maximal activation by 5-HT, activation at 10 μM for compounds without EC50 value
5-HT(2B) receptor [5] = target: T1, 5-HT(2B) receptor; assay: Calcium flux assay, stably transfected HEK-293 cells, 5-HT2B; format: cell-based; design: expressed in transfected cells; settings: for 5-HT2B % Max ± SEM: percent of maximal activation by 5-HT, activation at 10 μM for compounds without EC50 value
[6] = 10-60 mg/kg, behavioral assay, reference (15); cited from earlier work
[7] = system: PCP-disrupted PPI in mice; assay: Prepulse inhibition (PPI) animal study, PCP-disrupted PPI; settings: PCP 6 mg/kg i.p.
5-HT(2B) receptor [8] = target: T1, 5-HT(2B) receptor; assay: 5-HT(2B) antagonism, shift of 5-HT concentration curve in calcium flux experiments, Schild analysis
[9] = Stability in liver microsomes, human; format: in vitro ADME; settings: NADPH, 37° C.
CYP2D6 = CYP2D6 (Homo sapiens, UniProt P10635); assay: Recombinant CYP inhibition, CYP2D6; format: in vitro ADME; settings: recombinant CYP2D6, probe dextromethorphan, substrate dextromethorphan, recombinant enzyme, read-out: % Inhibition at 10 μM, CYP 2D6
[10] = Stability in liver microsomes, rat; format: in vitro ADME; settings: NADPH, 37° C.
Method: Stability in Liver Microsomes. For each sample to be investigated, the following was mixed: microsomes (50 μL, 0.5 mg/mL), MgCl2 solution (50 μL, 50 mM), phosphate buffer (250 μL, 100 mM), water (95 μL), test compound (+)-12 (5 μL, 200 μM). Verapamil was tested as a positive control. The reaction was performed at 37° C. and initiated by the addition of NADPH (50 μL, 10 mM) or, for the negative control, by the addition of water (50 μL). Aliquots of 50 μL were taken form the solution after 0, 15, 30, 45, and 60 minutes and the reaction stopped by the addition of 150 μL cold methanol to the aliquot. The samples were centrifuged (16000 rpm, 10 min). 100 μL supernatant was used for LC-MS-MS investigation. All incubations were performed in duplicate. Separation of the sample components was performed on a Waters ACQUITY UPLC C18 (2.1 mm×50 mm) column, using mobile phase mixtures between 0.1% formic acid in MeCN and 0.1% formic acid in water (elution rate 0.5 mL/min, column temperature 25° C.). […] The in vitro intrinsic clearance (in vitro CLint) was calculated according to: in vitro CLint=(0.693/t1/2)×(volume of incubation (μL)/amount of proteins (mg)).

CYP2C9 = CYP2C9 (Homo sapiens, UniProt P11712); assay: Recombinant CYP inhibition, CYP2C9; format: in vitro ADME; settings: recombinant CYP2C9, probe tolbutamide, substrate tolbutamide, recombinant enzyme, read-out: % Inhibition at 10 μM, CYP 2C9
CYP3A4 = CYP3A4 (Homo sapiens, UniProt P08684); assay: Recombinant CYP inhibition, CYP3A4; format: in vitro ADME; settings: recombinant enzyme, read-out: % Inhibition at 10 μM, CYP 3A4
[11] = 5-HT2C EC50 ± SEM, Table 2, second section
[12] = Table 2, second section, EC50 ratio
[13] = Table 2, second section, read-out: 5-HT2C EC50 ± SEM

T3 sequence (P28223 whole entry): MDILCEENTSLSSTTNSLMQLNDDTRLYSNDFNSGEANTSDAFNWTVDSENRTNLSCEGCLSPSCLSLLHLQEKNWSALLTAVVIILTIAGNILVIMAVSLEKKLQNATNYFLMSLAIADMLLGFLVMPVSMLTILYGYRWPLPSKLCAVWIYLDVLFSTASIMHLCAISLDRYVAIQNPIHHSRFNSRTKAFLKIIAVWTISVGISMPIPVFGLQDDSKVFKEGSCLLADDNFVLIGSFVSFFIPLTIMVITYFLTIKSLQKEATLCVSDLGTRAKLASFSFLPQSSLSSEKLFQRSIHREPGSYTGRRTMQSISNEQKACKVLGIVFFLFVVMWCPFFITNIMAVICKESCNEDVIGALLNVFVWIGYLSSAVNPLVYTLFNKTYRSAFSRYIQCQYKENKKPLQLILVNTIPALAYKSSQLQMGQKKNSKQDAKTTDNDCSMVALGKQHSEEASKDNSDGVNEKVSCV
T1 sequence (P41595 whole entry): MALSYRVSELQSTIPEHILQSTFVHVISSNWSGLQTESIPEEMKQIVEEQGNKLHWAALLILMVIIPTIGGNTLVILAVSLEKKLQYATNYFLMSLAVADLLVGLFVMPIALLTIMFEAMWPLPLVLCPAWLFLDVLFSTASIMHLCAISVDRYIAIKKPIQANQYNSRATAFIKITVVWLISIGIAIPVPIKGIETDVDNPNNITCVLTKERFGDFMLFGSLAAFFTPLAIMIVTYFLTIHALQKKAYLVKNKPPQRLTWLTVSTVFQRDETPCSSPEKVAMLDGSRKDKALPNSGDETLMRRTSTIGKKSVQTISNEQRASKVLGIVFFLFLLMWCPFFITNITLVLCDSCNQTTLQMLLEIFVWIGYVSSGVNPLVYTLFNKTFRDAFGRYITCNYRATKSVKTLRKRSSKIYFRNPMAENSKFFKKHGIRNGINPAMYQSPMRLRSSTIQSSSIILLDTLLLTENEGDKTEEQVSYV
Chain of CYP2C9 (P11712 whole entry): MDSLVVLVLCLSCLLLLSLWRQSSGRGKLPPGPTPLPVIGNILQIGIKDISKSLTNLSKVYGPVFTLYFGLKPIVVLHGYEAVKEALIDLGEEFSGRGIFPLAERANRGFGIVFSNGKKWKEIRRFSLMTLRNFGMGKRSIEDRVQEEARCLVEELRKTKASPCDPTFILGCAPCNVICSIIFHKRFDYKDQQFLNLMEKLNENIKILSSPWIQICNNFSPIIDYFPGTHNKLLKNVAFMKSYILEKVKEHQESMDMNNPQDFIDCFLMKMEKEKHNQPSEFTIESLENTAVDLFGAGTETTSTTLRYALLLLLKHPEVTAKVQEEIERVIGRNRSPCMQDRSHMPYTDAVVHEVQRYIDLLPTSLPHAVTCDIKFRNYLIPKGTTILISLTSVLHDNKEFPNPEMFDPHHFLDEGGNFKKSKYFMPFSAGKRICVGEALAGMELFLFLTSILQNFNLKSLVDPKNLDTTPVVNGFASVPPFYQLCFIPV
Chain of CYP3A4 (P08684 whole entry): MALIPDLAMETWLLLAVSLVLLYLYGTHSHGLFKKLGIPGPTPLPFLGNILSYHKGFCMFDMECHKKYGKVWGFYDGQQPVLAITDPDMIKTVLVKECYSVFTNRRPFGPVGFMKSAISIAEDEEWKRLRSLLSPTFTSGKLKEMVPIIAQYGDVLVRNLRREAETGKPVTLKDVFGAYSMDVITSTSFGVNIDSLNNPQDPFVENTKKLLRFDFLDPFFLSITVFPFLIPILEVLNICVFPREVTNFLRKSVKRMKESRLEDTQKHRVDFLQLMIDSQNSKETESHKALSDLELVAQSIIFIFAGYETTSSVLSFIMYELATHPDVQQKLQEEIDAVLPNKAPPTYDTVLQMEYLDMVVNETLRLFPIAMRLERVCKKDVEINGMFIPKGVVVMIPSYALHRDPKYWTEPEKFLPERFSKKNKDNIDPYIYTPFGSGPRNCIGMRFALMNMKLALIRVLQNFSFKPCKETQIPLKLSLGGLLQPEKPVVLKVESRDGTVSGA
Chain of CYP2D6 (P10635 whole entry): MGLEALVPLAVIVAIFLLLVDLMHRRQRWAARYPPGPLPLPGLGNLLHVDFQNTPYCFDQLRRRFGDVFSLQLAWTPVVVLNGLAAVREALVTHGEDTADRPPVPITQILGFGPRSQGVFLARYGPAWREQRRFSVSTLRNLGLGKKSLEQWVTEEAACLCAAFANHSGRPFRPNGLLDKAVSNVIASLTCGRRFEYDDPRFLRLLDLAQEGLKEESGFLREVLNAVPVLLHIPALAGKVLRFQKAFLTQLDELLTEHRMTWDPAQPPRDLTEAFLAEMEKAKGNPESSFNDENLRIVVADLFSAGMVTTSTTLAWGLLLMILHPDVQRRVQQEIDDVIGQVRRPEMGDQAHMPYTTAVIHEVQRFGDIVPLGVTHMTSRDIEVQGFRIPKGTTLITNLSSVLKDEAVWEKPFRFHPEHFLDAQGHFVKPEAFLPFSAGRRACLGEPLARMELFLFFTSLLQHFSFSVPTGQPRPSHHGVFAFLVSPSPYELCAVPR

Cc1ccc(CCC2CC2)c(C2CC2CN)c1.Cl (stereo not shown) [Compound 52]
2B Receptor Emax (5-HT(2B) receptor [1]): 35
2C Receptor Emax (5-HT(2C) receptor): 98
2A Receptor Emax (5-HT(2A) receptor [2]): 47

C[C@H]1CNCCc2ccc(Cl)cc21 [2 (Lorcaserin), Lorcaserin, reference compound]
agonist potency at the 5-HT(2C) receptor (in words) [3]: low nM potency
5-HT2C % Max ± SEM ([3]; Table 2, first section): 99% ±
5-HT2C % Max ± SEM ([3]; Table 2, second section): 94% ±
5-HT2A % Max ± SEM (5-HT(2A) receptor [4]; Table 2, first section): 24% ±
5-HT2A % Max ± SEM (5-HT(2A) receptor [4]; Table 2, second section): 31% ±
5-HT2B % Max ± SEM (5-HT(2B) receptor [5]; Table 2, first section): 93% ±
5-HT2B % Max ± SEM (5-HT(2B) receptor [5]; Table 2, second section): 86% ±

NC[C@@H]1C[C@H]1c1cc(O)ccc1OCC1CC1 (relative stereo) [Compound 18, trans-[2-(2-Cyclopropylmethyloxy-5-hydroxyphenyl)cyclopropyl]methylamine Hydrochloride]
Emax 2C/2A ([3]; Table 2, first section): 9.4
Emax 2C/2B ([3]; Table 2, first section): 12

Cc1cccc(C2CC2CN)c1 (stereo not shown) [Compound 1]
antidepressant-like effects [6]: moderate antidepressant-like effects

NC[C@H]1C[C@@H]1c1cc(O)ccc1OCC1CC1 [(+)-18, (+)-trans-(S,S)-[2-(2-Cyclopropylmethyloxy-5-hydroxyphenyl)cyclopropyl]methylamine Hydrochloride]
EC50 [3, 11]: 0.0093 µM
Selectivity 2A/2C [3, 12]: 40
Emax 2C/2A ([3]; Table 2, second section): 3.9
Emax 2C/2B ([3]; Table 2, second section): 11
5-HT2C % Max ± SEM ([3]; Table 2, second section): 70% ±
normalization of PCP-disrupted PPI ([7]; 10 mg/kg): able to normalize PCP-disrupted PPI
EC50 (5-HT(2A) receptor [4]; 5-HT2A EC50 ± SEM, Table 2, second section (second screening campaign), NA: Emax ≦ 12%): 0.372 µM
5-HT2A % Max ± SEM (5-HT(2A) receptor [4]; Table 2, second section): 18% ±
pA2 (±SEM), Schild analysis (5-HT(2B) receptor [8]; 5-HT(2B) antagonism against 5-HT, calcium flux, n=3): 5.79±0.07
5-HT2B % Max ± SEM (5-HT(2B) receptor [5]; Table 2, second section): 6% ±

Cl.NCC1CC1c1ccccc1CCC1CC1 (stereo not shown) [Compound 50]
2B Receptor ED50 (5-HT(2B) receptor [1]): no activity
2C Receptor Emax (5-HT(2C) receptor): 35 and 60
2A Receptor ED50 (5-HT(2A) receptor [2]): no activity

Cl.NC[C@@H]1C[C@H]1c1cc(F)ccc1OCC1CC1 (racemic) [Compound 12, trans-[2-(2-Cyclopropylmethyloxy-5-fluorophenyl)cyclopropyl]methylamine Hydrochloride]
EC50 ([3]; EC50 at the 5-HT(2C) receptor, running text b178, functional assays): 0.254 µM
Selectivity 2A/2C ([3]; Table 2, first section, EC50 ratio): 77
5-HT2C % Max ± SEM ([3]; Table 2, first section): 68% ±
EC50 ([3]; Table 2, first section, read-out: 5-HT2C EC50 ± SEM): 0.0099 µM
5-HT2A % Max ± SEM (5-HT(2A) receptor [4]; Table 2, first section): 11% ±
EC50 (5-HT(2A) receptor [4]; read-out: 5-HT2A EC50 ± SEM): 0.761 µM
5-HT2B % Max ± SEM (5-HT(2B) receptor [5]; Table 2, first section): 2% ±

NCCc1c[nH]c2ccc(O)cc12 [Compound 5-HT, 5-Hydroxytryptamine, reference compound]
5-HT2A % Max ± SEM (5-HT(2A) receptor [4]; Table 2, first section): 100%
5-HT2A % Max ± SEM (5-HT(2A) receptor [4]; Table 2, second section): 100% ±

trans-[2-(2-cyclopropylmethyloxy-5-fluorophenyl)cyclopropyl]-methylamine hydrochloride [(−)-12]
Emax 2C/2A ([3]; Table 2, second section): >>
Emax 2C/2B ([3]; Table 2, second section): 8.0
5-HT2C % Max ± SEM ([3]; Table 2, second section): 35% ±
EC50 [3, 13]: 0.918 µM
EC50 ([3]; read-out: EC50 in the 5-HT(2C) assay, running text b178): ~2.4 µM
5-HT2A % Max ± SEM (5-HT(2A) receptor [4]; Table 2, second section): 0% ±
5-HT2B % Max ± SEM (5-HT(2B) receptor [5]; Table 2, second section): 4% ±

NC[C@@H]1C[C@H]1c1cc(F)ccc1OCC1CC1 (relative stereo) [Compound 12, trans-[2-(2-Cyclopropylmethyloxy-5-fluorophenyl)cyclopropyl]methylamine Hydrochloride]
Emax 2C/2A ([3]; Table 2, first section): 6.2
Emax 2C/2B ([3]; Table 2, first section): 38
activation of the 5-HT(2A) receptor (in words) (5-HT(2A) receptor [4]; functional assays): not to activate
activation of the 5-HT(2B) receptor (in words) (5-HT(2B) receptor [5]; functional assays): not to activate

NCC1CC1c1cc(O)ccc1OCC1CC1 (single isomer, unassigned; (-)) [(−)-18]
EC50 [3, 11]: 0.361 µM
Emax 2C/2A ([3]; Table 2, second section): 19
Emax 2C/2B ([3]; Table 2, second section): >>
5-HT2C % Max ± SEM ([3]; Table 2, second section): 51% ±
5-HT2A % Max ± SEM (5-HT(2A) receptor [4]; Table 2, second section): 3% ±
5-HT2B % Max ± SEM (5-HT(2B) receptor [5]; Table 2, second section): 0% ±

NC[C@H]1C[C@@H]1c1cc(F)ccc1OCC1CC1 [(+)-12, (+)-trans-(S,S)-[2-(2-Cyclopropylmethyloxy-5-fluorophenyl)cyclopropyl]methylamine Hydrochloride]
Selectivity 2A/2C [3, 12]: 42
Selectivity 2B/2C [3, 12]: 14
Emax 2C/2A ([3]; Table 2, second section): 2.5
Emax 2C/2B ([3]; Table 2, second section): 3.4
5-HT2C % Max ± SEM ([3]; Table 2, second section): 71% ±
Microsomal stability (% remaining), human [9]: 90.50%
normalization of PCP-disrupted PPI ([7]; 5 mg/kg dose level): still effective
normalization of PCP-disrupted PPI ([7]; 10 mg/kg): able to normalize PCP-disrupted PPI
inhibition at 20 min, 10 µM (CYP2D6): 27%
Microsomal stability (% remaining), rat [10]: 66.03%
5-HT2A % Max ± SEM (5-HT(2A) receptor [4]; Table 2, second section): 29% ±
inhibition at 20 min, 10 µM (CYP2C9): 19.6%
5-HT2B % Max ± SEM (5-HT(2B) receptor [5]; Table 2, second section): 21% ±
inhibition at 5 min, 10 µM (CYP3A4; recombinant CYP3A4, probe midazolam, substrate midazolam): 21.7%
inhibition at 5 min, 10 µM (CYP3A4; recombinant CYP3A4, probe testosterone, substrate testosterone): 25.1%

NCC1CC1c1cc(F)ccc1OCC1CC1 [(+)-12, (+)-trans-(S,S)-[2-(2-Cyclopropylmethyloxy-5-fluorophenyl)cyclopropyl]methylamine Hydrochloride]
EC50 [3, 13]: 0.021 µM
EC50 (5-HT(2A) receptor [4]; Table 2, second section (second screening campaign), NA: Emax ≦ 12%, read-out: 5-HT2A EC50 ± SEM): 0.894 µM
Kb (5-HT(2B) receptor [8]): 3.16 µM
EC50 (5-HT(2B) receptor [5]; Table 2, second section, NA: Emax ≦ 12%, read-out: 5-HT2B EC50 ± SEM): 0.289 µM

Nc1ccc(S(=O)(=O)Nc2ccnn2-c2ccccc2)cc1 [sulfaphenazole, reference compound]
inhibition at 20 min, 10 µM (CYP2C9): 94.7%

Cl.NCC1CC1c1cc(Br)ccc1CCC1CC1 (stereo not shown) [Compound 51]
2B Receptor ED50 (5-HT(2B) receptor [1]): no activity
2C Receptor Emax (5-HT(2C) receptor): 92
2A Receptor ED50 (5-HT(2A) receptor [2]): no activity

CC(C)c1ccc(CCC2CC2)c(C2CC2CN)c1.Cl (stereo not shown) [Compound 53]
2B Receptor Emax (5-HT(2B) receptor [1]): 66
2C Receptor Emax (5-HT(2C) receptor): 93
2A Receptor Emax (5-HT(2A) receptor [2]): 92

Cl.NC[C@@H]1C[C@H]1c1cc(O)ccc1OCC1CC1 (racemic) [Compound 18, trans-[2-(2-Cyclopropylmethyloxy-5-hydroxyphenyl)cyclopropyl]methylamine Hydrochloride]
EC50 ([3]; 5-HT2C EC50 ± SEM, Table 2, first section): 0.019 µM
5-HT2C % Max ± SEM ([3]; Table 2, first section): 68% ±
5-HT2A % Max ± SEM (5-HT(2A) receptor [4]; Table 2, first section): 7% ±
5-HT2B % Max ± SEM (5-HT(2B) receptor [5]; Table 2, first section): 6% ±
